Measured values: patent US20250019350A1, “SYNTHESIS OF THE PROSTATE SPECIFIC MEMBRANE ANTIGEN (PSMA) RADIOLABELED INHIBITOR [18F]DCFPYL” (Progenics Pharmaceuticals, Inc, priority 2023, published 2025)

Experiment: Radiolysis / stability of [18F]DCFPyL over time by HPLC with radiodetection (RCP, free 18F, radioactive impurities)
Format: physicochemical
Method: Those of ordinary skill in the art will be aware of techniques and systems for determining the radiochemical purity of a composition. In some cases, the radiochemical purity is determined using an HPLC associated with a radio-detector. Generally, the radiochemical purity is determined under ambient conditions (e.g., ambient temperature, ambient humidity, ambient light, etc.), such as in samples stored under such conditions.
Stability was assessed using reverse phase HPLC on a C18 column with a phosphate buffer/acetonitrile gradient mobile phase, and the elution profile was monitored using both UV and radiochemical detectors. Samples were analyzed either by direct injection onto the HPLC, dilution and injection or including the addition of tetraethylammonium fluoride (TEAF) into the sample before injection.
Known amounts of free ^18F either alone or spiked with TEAF were injected onto the analytic column and the eluent from the column collected over the course of a chromatogram and assaying the radioactivity using a Capintec. […] Adding TEAF into the analytic samples was incorporated into subsequent studies examining potential radiolysis of [^18F]DCFPyL to overcome some of the limitations of free ^18F quantification.
Analytical HPLC method was used. The method employs UV detection at 264 nm for chemical impurities, and an Eckert & Ziegler model B-FC-1000 gamma detector for radiochemical assays.

[1] = T = 10, 50 mg/mL ascorbic acid pH 5.8, 20% ethanol, 106.5 mCi/mL at EOS
[2] = T = 0.5 hr, 50 mg/mL ascorbic acid pH 5.8 in final product vial, 20% ethanol, 110 mCi/mL at EOS
[3] = T = 0.5 hr, 100 mg/mL ascorbic acid pH 2.0, 256 mCi/mL at EOS
[4] = T = 0.5 hr, 20% ethanol in saline, 52 mCi/mL at EOS
[5] = T = 0.5 hr, 20% ethanol in saline, 65 mCi/mL at EOS
[6] = T = 0.5 hr, 20% ethanol in saline, 85 mCi/mL at EOS
[7] = T = 0.5 hr, control without ascorbic acid, 36% ethanol in saline, 147 mCi/mL at EOS
[8] = T = 1.0 hr, 50 mg/mL ascorbic acid pH 5.8 in final product vial, 20% ethanol, 110 mCi/mL at EOS
[9] = T = 1.0 hr, 100 mg/mL ascorbic acid pH 2.0, 256 mCi/mL at EOS
[10] = T = 1 hr, 20% ethanol in saline, 52 mCi/mL at EOS
[11] = T = 1 hr, 20% ethanol in saline, 65 mCi/mL at EOS
[12] = T = 1 hr, 20% ethanol in saline, 85 mCi/mL at EOS
[13] = T = 1 hr, 100% ethanol, 325 mCi/mL at EOS
[14] = T = 1 hr, control without ascorbic acid, 36% ethanol in saline, 147 mCi/mL at EOS
[15] = T = 1.5 hr (Table 3 prints 1.6 hr), control without ascorbic acid, 36% ethanol in saline, 147 mCi/mL at EOS
[16] = T = 1.5 hr, 50 mg/mL ascorbic acid pH 5.8 in final product vial, 20% ethanol, 110 mCi/mL at EOS
[17] = T = 1.5 hr, 100 mg/mL ascorbic acid pH 2.0, 256 mCi/mL at EOS
[18] = T = 1.5 hr, 20% ethanol in saline, 52 mCi/mL at EOS
[19] = T = 1.5 hr, 20% ethanol in saline, 65 mCi/mL at EOS
[20] = T = 1.5 hr, 20% ethanol in saline, 85 mCi/mL at EOS
[21] = T = 2 hr, 0.5 mg/mL ascorbic acid pH 5.8, 20% ethanol, 105.8 mCi/mL at EOS
[22] = T = 2 hr, 1 mg/mL ascorbic acid pH 5.8, 20% ethanol, 107.0 mCi/mL at EOS
[23] = T = 2 hr, 5 mg/mL ascorbic acid pH 5.8, 20% ethanol, 99.0 mCi/mL at EOS
[24] = T = 2 hr, 20 mg/mL sodium citrate, 20% ethanol, 104.8 mCi/mL at EOS
[25] = T = 2 hr, 50 mg/mL ascorbic acid pH 5.8, 20% ethanol, 139.7 mCi/mL at EOS
[26] = T = 2.0 hr, 50 mg/mL ascorbic acid pH 5.8 in final product vial, 20% ethanol, 110 mCi/mL at EOS
[27] = T = 2.0 hr, 100 mg/mL ascorbic acid pH 2.0, 256 mCi/mL at EOS
[28] = T = 2 hr, 20% ethanol in saline, 52 mCi/mL at EOS
[29] = T = 2 hr, 20% ethanol in saline, 65 mCi/mL at EOS
[30] = T = 2 hr, 20% ethanol in saline, 85 mCi/mL at EOS
[31] = T = 2 hr, 100% ethanol, 325 mCi/mL at EOS
[32] = T = 2 hr, control without ascorbic acid, 36% ethanol in saline, 147 mCi/mL at EOS
[33] = T = 2.5 hr, 50 mg/mL ascorbic acid pH 5.8 in final product vial, 20% ethanol, 110 mCi/mL at EOS

## O=C(O)CC[C@H](NC(=O)N[C@@H](CCCCNC(=O)c1ccc([18F])nc1)C(=O)O)C(=O)O [Lot 18F-DCFPyL, 2-(3-{1-carboxy-5-[(6-[18F]fluoro-pyridine-3-carbonyl)-amino]-pentyl}ureido)-pentanedioic acid]
[1]
  18F-DCFPyL (% RCP): 99.43%
  Free F-18: 0.57%
[2]
  18F-DCFPyL (RCP): 99.69%
  RT 5.0 radioactive impurity: 0.31%
[3]
  18F-DCFPyL (RCP): 99.60%
  Free 18F: 0.40%
[4]
  18F-DCFPyL (RCP): 99.18%
  Free F-18: 0.36%
  RT 5.0 radioactive impurity: 0.47%
[5]
  18F-DCFPyL (RCP): 96.43%
  Free F-18: 3.17%
  RT 5.0 radioactive impurity: 0.39%
[6]
  18F-DCFPyL (RCP): 96.74%
  Free F-18: 2.92%
  RT 5.0 radioactive impurity: 0.34%
[7]
  18F-DCFPyL (RCP): 90.65%
  Free F-18: 7.73%
  RT 5.0 radioactive impurity: 0.65%
  RT 5.9 radioactive impurity: 0.97%
[8]
  18F-DCFPyL (RCP): 96.73%
  RT 5.0 radioactive impurity: 0.27%
[9]
  18F-DCFPyL (RCP): 98.68%
  Free 18F: 0.31%
  RT 5.0 radioactive impurity: 0.35%
  RT 12.0 radioactive impurity: 0.35%
  RT 12.2 radioactive impurity: 0.31%
[10]
  18F-DCFPyL (RCP): 98.93%
  Free F-18: 0.56%
  RT 5.0 radioactive impurity: 0.51%
[11]
  18F-DCFPyL (RCP): 96.15%
  Free F-18: 3.22%
  RT 5.0 radioactive impurity: 0.36%
  RT 5.9 radioactive impurity: 0.28%
[12]
  18F-DCFPyL (RCP): 96.64%
  Free F-18: 2.98%
  RT 5.0 radioactive impurity: 0.38%
[13]
  18F-DCFPyL (RCP): 96.66%
  Free F-18: 3.34%
[14]
  18F-DCFPyL (RCP): 90.71%
  Free F-18: 7.69%
  RT 5.0 radioactive impurity: 0.48%
  RT 5.9 radioactive impurity: 1.11%
[15]
  18F-DCFPyL (RCP): 89.59%
  Free F-18: 8.78%
  RT 5.0 radioactive impurity: 0.61%
  RT 5.9 radioactive impurity: 1.03%
[16]
  18F-DCFPyL (RCP): 99.61%
  RT 5.0 radioactive impurity: 0.39%
  RT 5.9 radioactive impurity: 0.31%
[17]
  18F-DCFPyL (RCP): 98.58%
  Free 18F: 0.31%
  RT 5.0 radioactive impurity: 0.28%
  RT 12.0 radioactive impurity: 0.46%
  RT 12.2 radioactive impurity: 0.37%
[18]
  18F-DCFPyL (RCP): 98.70%
  Free F-18: 0.80%
  RT 5.0 radioactive impurity: 0.50%
[19]
  18F-DCFPyL (RCP): 95.78%
  Free F-18: 3.55%
  RT 5.0 radioactive impurity: 0.38%
  RT 5.9 radioactive impurity: 0.29%
[20]
  18F-DCFPyL (RCP): 95.06%
  Free F-18: 4.22%
  RT 5.0 radioactive impurity: 0.41%
  RT 5.9 radioactive impurity: 0.31%
[21]
  18F-DCFPyL (% RCP): 98.99%
  Free F-18: 1.01%
[22]
  18F-DCFPyL (% RCP): 98.88%
  Free F-18: 1.12%
T = 2 hr, 1 mg/mL sodium ascorbate, 20% ethanol, 111.5 mCi/mL at EOS
  Free F-18: 1.89%
[23]
  18F-DCFPyL (% RCP): 99.45%
  Free F-18: 0.55%
T = 2 hr, 5 mg/mL sodium ascorbate, 20% ethanol, 114.6 mCi/mL at EOS
  Free F-18: 0.89%
[24]
  Free F-18: 18.24%
  RT 3.4 radioactive impurity: 0.30%
  RT 3.7 radioactive impurity: 0.31%
[25]
  18F-DCFPyL (% RCP): 100.00%
  Free F-18: 0.00%
T = 2 hr, 50 mg/mL ascorbic acid pH 5.8, 20% ethanol, 139.7 mCi/mL at EOS, MPA = 0.25% of main peak
  RT 4.8 radioactive impurity: <MPA
[26]
  18F-DCFPyL (RCP): 99.67%
  RT 5.0 radioactive impurity: 0.33%
  RT 5.9 radioactive impurity: 0.24%
[27]
  18F-DCFPyL (RCP): 98.35%
  Free 18F: 0.31%
  RT 5.0 radioactive impurity: 0.35%
  RT 12.0 radioactive impurity: 0.52%
  RT 12.2 radioactive impurity: 0.47%
[28]
  18F-DCFPyL (RCP): 98.62%
  Free F-18: 0.91%
  RT 5.0 radioactive impurity: 0.47%
[29]
  18F-DCFPyL (RCP): 95.91%
  Free F-18: 3.78%
  RT 5.0 radioactive impurity: 0.31%
[30]
  18F-DCFPyL (RCP): 95.37%
  Free F-18: 4.00%
  RT 5.0 radioactive impurity: 0.39%
  RT 5.9 radioactive impurity: 0.24%
[31]
  18F-DCFPyL (RCP): 96.38%
  Free F-18: 3.62%
[32]
  18F-DCFPyL (RCP): 89.50%
  Free F-18: 8.67%
  RT 5.0 radioactive impurity: 0.77%
  RT 5.9 radioactive impurity: 1.05%
[33]
  18F-DCFPyL (RCP): 99.63%
  RT 5.0 radioactive impurity: 0.37%
  RT 5.9 radioactive impurity: 0.35%
